Experimental data from publication PMC10992857, “Chemoenzymatic access to enantiopure N-containing furfuryl alcohol from chitin-derived N-acetyl-D-glucosamine” (Bioresources and Bioprocessing, 2021).

Assays:
[1] = tested on: T1, ScCR; carbonyl reductase from Streptomyces coelicolor; assay: kinetics of asymmetric ketone reduction; format: biochemical; settings: co-substrate NADH; full assay conditions in supplement Table S3
T1 construct: pET28a, His-tag purified from E. coli BL21(DE3); NADH-dependent

[2] = tested on: T2, YueD; carbonyl reductase from Bacillus sp. ECU0013; assay: kinetics of asymmetric ketone reduction; format: biochemical; settings: co-substrate NADPH; full assay conditions in supplement Table S3
T2 construct: pET28a, His-tag purified from E. coli BL21(DE3); NADPH-dependent
Text: kinetics of asymmetric ketone reduction on YueD; carbonyl reductase from Bacillus sp.

- Km [1]: 6.3 mM
- Km [2]: 500 µM
Structure (SMILES): CC(=O)Nc1coc(C(C)=O)c1 [3A5AF, 3-Acetamido-5-acetylfuran]
